# According to the supplement of paper PMC10307832:
# Experiments:
# Assay in all cases: relative viability (nuclei count vs DMSO), 5 days (fraction); higher = more cells survive
# Bemcentinib + Bortezomib = compound: Nc1nc(Nc2ccc3c(c2)CC[C@@H](N2CCCC2)CC3)nn1-c1cc2c(nn1)-c1ccccc1CCC2 [Bemcentinib] + CC(C)C[C@H](NC(=O)[C@H](Cc1ccccc1)NC(=O)c1cnccn1)B(O)O [Bortezomib] (partner 0.002 µM)
# Procedure, shortened: (§1)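 After 5 days of treatment, lung cancer cells in 1536-well plates were fixed and stained in a single step (final 0.05% Triton X-100, 1% formaldehyde, 1 ug/ml Hoechst) and their nuclei counted on 4× images. Treatment had been applied by pin tool the day after seeding as one drug alone or as a fixed anchor-drug dose with five library-drug doses (not always all listed) in √10 steps. Relative viability is the nuclei count of treated wells divided by that of vehicle wells, and values are medians of duplicate plates.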
# [1] = compound: CC1=CC=C(C=C1)C(=O)CN2C3=C(CCCC3)SC2=N [Pifithrin_alpha] + COc1cc2c(Oc3ccc(NC(=O)C4(C(=O)Nc5ccc(F)cc5)CC4)cc3F)ccnc2cc1OCCCN1CCOCC1 [Foretinib] (partner 0.25 µM)
# Procedure, shortened: as §1
# Bemcentinib + Luminespib = compound: Nc1nc(Nc2ccc3c(c2)CC[C@@H](N2CCCC2)CC3)nn1-c1cc2c(nn1)-c1ccccc1CCC2 [Bemcentinib] + CCNC(=O)c1noc(-c2cc(C(C)C)c(O)cc2O)c1-c1ccc(CN2CCOCC2)cc1 [Luminespib] (partner 0.01 µM)
# Procedure, shortened: as §1
# Axitinib + Foretinib = compound: CNC(=O)c1ccccc1Sc1ccc2c(/C=C/c3ccccn3)n[nH]c2c1 [Axitinib] + COc1cc2c(Oc3ccc(NC(=O)C4(C(=O)Nc5ccc(F)cc5)CC4)cc3F)ccnc2cc1OCCCN1CCOCC1 [Foretinib] (partner 0.25 µM)
# Procedure, shortened: as §1
Cell Line,relative viability (Bemcentinib + Bortezomib; first compound 0.04 µM),relative viability (Bemcentinib + Bortezomib; first compound 0.1265 µM),relative viability (Bemcentinib + Bortezomib; first compound 0.4 µM),relative viability (Bemcentinib + Bortezomib; first compound 1.265 µM),relative viability (Bemcentinib + Bortezomib; first compound 4 µM),relative viability ([1]; first compound 1 µM),relative viability ([1]; first compound 3.162 µM),relative viability ([1]; first compound 10 µM),relative viability ([1]; first compound 100 µM),relative viability (Bemcentinib + Luminespib; first compound 0.04 µM),relative viability (Bemcentinib + Luminespib; first compound 0.1265 µM),relative viability (Bemcentinib + Luminespib; first compound 0.4 µM),relative viability (Bemcentinib + Luminespib; first compound 1.265 µM),relative viability (Bemcentinib + Luminespib; first compound 4 µM),relative viability (Axitinib + Foretinib; first compound 0.005 µM),relative viability (Axitinib + Foretinib; first compound 0.01581 µM),relative viability (Axitinib + Foretinib; first compound 0.05 µM),relative viability (Axitinib + Foretinib; first compound 0.1581 µM),relative viability (Axitinib + Foretinib; first compound 0.5 µM),relative viability ([1]; first compound 31.62 µM)
COR-L23,1.16,1.14,1.17,1.27,1.24,0.955,0.987,0.97,0.928,0.628,0.903,0.807,0.827,0.913,1.1,0.953,1.13,0.948,1.02,
NCI-H1734,0.935,0.871,1.2,0.953,0.947,0.868,0.825,0.814,0.793,0.178,0.192,0.219,0.218,0.188,0.928,0.853,0.923,0.944,1.08,0.763
LU99A,1.11,1.12,1.01,1.25,1.2,0.772,0.866,0.861,0.776,0.19,0.289,0.234,0.346,0.24,0.901,0.851,0.818,0.894,0.936,0.398
NCI-H1437,0.54,0.546,0.503,0.405,0.489,1.4,1.33,1.21,0.93,1.12,1.24,1.15,1.07,1.11,1.3,1.22,1.28,1.13,1.25,0.794
NCI-H460,1.24,1.54,1.66,1.25,1.15,1.06,0.974,0.933,0.631,0.0301,0.0417,0.0326,0.0332,0.0269,1.01,0.917,0.974,0.995,1.05,0.492
NCI-H2085,1.01,1.11,1.03,0.997,0.973,,1.11,1.07,0.844,0.447,0.448,0.435,0.471,0.449,0.979,1.05,0.884,0.9,1.07,0.78
NCI-H322M,1.25,1.25,1.23,1.34,1.34,0.91,1.03,0.964,0.839,0.828,0.943,0.835,0.817,0.804,1.18,0.926,0.922,0.859,1.12,0.929
201T,0.864,1.15,1.12,0.978,1.1,0.928,0.745,0.684,0.681,1.07,1.05,1.14,1.07,1.14,1.07,1.06,0.972,1.17,1.21,0.627
SK-LU-1,1.02,1.35,1.38,1.3,1.25,0.884,0.95,0.84,0.858,0.204,0.202,0.196,0.192,0.198,0.904,0.959,0.929,0.849,1.1,
ChaGo-K-1,0.905,1.1,0.98,0.804,0.766,0.917,0.985,0.871,0.814,0.573,0.542,0.701,0.843,0.587,0.961,1,0.984,0.889,1,0.828
NCI-H1755,0.982,1,0.973,0.995,0.961,0.819,0.833,0.849,0.862,0.742,0.52,0.617,0.34,0.418,0.946,0.931,0.788,0.888,0.935,0.674
NCI-H1666,0.649,0.937,0.854,0.895,0.759,0.969,0.933,0.867,0.763,1.05,1.07,0.993,0.956,0.955,1,1.03,0.995,1.02,0.935,0.781
PC-3 [JPC-3],0.803,0.948,0.8,0.906,0.869,1.05,0.991,0.927,0.931,0.722,0.695,0.712,0.69,0.674,1.01,0.988,1.02,1,1.23,0.833
NCI-H1975,0.381,0.347,0.417,0.433,0.44,0.869,0.8,0.572,0.568,0.162,0.216,0.249,0.187,0.204,1.05,0.944,0.938,0.997,1.03,0.55
LC-2-ad,1,1.01,1.11,0.968,0.982,,0.902,0.904,0.871,0.997,1.11,1.03,0.935,0.905,0.871,0.891,0.917,0.761,0.959,
NCI-H1993,1.12,1.17,1.14,0.921,1.2,0.721,0.566,0.694,0.674,0.905,0.768,0.999,1.13,0.899,0.771,0.731,0.823,0.956,0.845,0.661
CAL-12T,0.977,0.936,0.953,0.736,0.908,0.923,1.18,1.06,0.898,0.273,0.462,0.388,0.363,0.453,1.13,1.08,1.15,1.17,1.21,
NCI-H1650,0.199,0.209,0.199,0.192,0.225,,1.2,1.04,0.853,0.207,0.237,0.199,0.236,0.186,1.32,1.12,1.24,1.19,1.31,0.837
H3255,0.648,0.863,0.767,0.803,0.715,0.716,0.949,0.827,0.92,0.745,1.07,0.793,0.777,0.747,1.03,0.61,0.848,0.859,0.801,0.777
NCI-H2228,,1.04,1.12,0.93,1.08,1.04,0.867,0.758,0.793,0.128,0.152,0.159,0.111,0.134,0.877,0.95,0.974,0.842,0.943,0.711
NCI-H727,0.691,1.12,0.918,0.746,1.1,0.903,0.759,0.837,0.75,0.352,0.383,0.268,0.29,0.303,1.23,0.837,0.896,0.982,1.15,
NCI-H1355,1.22,1.3,1.15,1.24,1.26,0.949,0.743,0.663,0.65,0.771,0.823,0.737,0.673,0.758,1.03,0.945,1.04,0.956,1.1,0.587
LXF-289,1.02,1.06,1.03,1.06,1.07,1.02,1.05,0.995,1.01,0.74,0.78,0.703,0.653,0.665,1.07,0.902,0.913,0.983,1.05,0.888
NCI-H3122,0.911,1.04,0.991,0.937,0.994,0.932,0.927,0.854,0.891,,0.0968,0.102,0.0892,0.0707,0.928,0.847,1.02,1.01,0.951,
NCI-H2023,0.938,1.03,1.04,1.15,1.12,0.969,,0.578,0.523,0.839,0.695,1.02,0.864,0.657,0.906,0.943,0.911,0.923,0.923,
NCI-H838,1.01,0.748,0.986,0.763,0.834,1.06,0.933,0.991,0.762,0.256,0.278,0.357,0.282,0.262,1.06,1.11,1.12,0.906,1.13,0.8
COR-L 105,0.766,0.71,1.04,0.739,0.74,1.08,0.976,1.13,0.734,0.741,0.839,0.893,0.704,0.783,0.973,1.12,1.16,1.05,1.49,0.897
